# Source: patent publication US8598159B2, “Therapeutic pyrazoloquinoline derivatives” (Dart Neuroscience (Cayman) Ltd., priority 2007, dated 2013)
# Tests used:
# [1] = target: GABAA central benzodiazepine receptor; experiment: Benzodiazepine binding assay ((3H)-flunitrazepam displacement); conditions: read-out: BZ binding assay (IC50); rat whole brain (except cerebellum), 1 nM (3H)-flunitrazepam, 60 minutes at 25° C.; 3-concentration dose response curve
# GABAA receptors = experiment: Electrophysiology assay (two-electrode voltage clamp, Xenopus oocytes expressing GABAA receptors); format: cell-based; conditions: positive (Pos) or negative (Neg) modulation of current at GABA EC20, screening concentration of 10 μM
# Procedure: The modulation of GABAA function is determined by changes in current as determined in an electrophysiology assay, as is detailed below.
# mRNA was prepared from lyophilized plasmid pellets containing cDNA inserts encoding the specific GABAA receptor subunit. cDNAs encoding the α2, α3, and γ3 subunits were subcloned into pBluescript, SK^−. cDNAs encoding the a 1 and a 5 subunits were subcloned into prC while cDNA encoding the β2 subunit was subcloned into pcDNA1. The cDNA construct encoding the g 2s subunit is in the pGH19 expression construct. Overnight cultures of transformed DH5a bacterial cells were performed to grow sufficient quantities for maxiprep isolation of the plasmid cDNA. The resulting plasmid cDNA was linearized by digestion with an appropriate restriction enzyme that cleaves distal to the cDNA insert [XbaI (α1, β2), NotI (α3, γ2 s), SacII (α2), or ApaI (α5)]. Following digestion, plasmid cDNA was treated with proteinase K and extracted with phenol/chloroform/isoamyl alcohol, followed by ethanol precipitation. cDNA quality was assessed by agarose-gel electrophoresis (1.5% agarose gel). Samples were stored at −20° C. until use. In vitro transcription was performed with T7 RNA polymerase. mRNA was then stored at −80° C. until use. Plasmids were linearized with appropriate restriction enzymes before in vitro transcription using the Message Machine kit (Ambion, Austin, Tex.).
# GABAA receptor expression in Xenopus oocytes: Following 45 min of 0.15% Tricaine anesthesia, an ovarian section containing the follicular oocytes was removed from the frog through a lateral abdominal incision. Oocytes were immediately placed in a calcium-free solution (NaCl 96 mM, MgCl2 1 mM, KCl 2 mM, Hepes 50 mM, pyruvate 2.5 mM, gentamycin 100 μg/mL, penicillin-streptomycin 50 U/mL, pH 7.4). Following 1.5-2 hour incubation in 0.2% collagenase (type II, Sigma Chemical Co., St. Louis, Mo.) at room temperature, individual Dumont stage V and VI oocytes were transferred to an incubator and maintained overnight in Barth's solution (NaCl 84 mM, NaHCO3 2.4 mM, MgSO4 0.82 mM, KCl 1 mM, Ca(NO3)2 0.33 mM, CaCl2 0.41 mM, Tris/HCl 7.5 mM, pyruvate 2.5 mM, gentamycin 50 μg/mL, penicillin-streptomycin, 100 units/mL, pH 7.4) at 18-20° C. and used for experiments 1-5 days post-injection. Oocytes were injected solution using an electronic microinjector (Drummond, Broomall, Pa.) with 50 nL of RNA containing 0.3-0.5 ng of each subunit RNA in a 1:1:2 ratio. The injected oocytes were used for experiments after 1-5 days of incubation in Barth's solution at 18-20° C.
# Measurements of ion currents from oocytes expressing GABAA receptors were performed using a Warner two-electrode voltage-clamp amplifier (Warner Instruments, Inc., Foster City, Calif.) (Park-Chung, M. A., et al. (1999) Brain Res. 830: 72-87 incorporated herein in its entirety). Microelectrodes were fabricated from borosilicate glass capillaries with a programmed pipette puller (Sutter Instrument Co., CA). Microelectrode resistance was 1-3 MΩ when filled with 3 M KCl. The oocyte recording chamber was continuously perfused with ND-96 solution. Oocytes were clamped at a holding potential of −70 mV during data acquisition. The membrane current was filtered at 10 Hz and sampled at 100 Hz. Compounds were applied by a gravity-driven external perfusion system. The working volume of the recording chamber was […] and the rate of the perfusion was approximately […]. Compound application was 20-25 sec followed by a minimum of 150 sec wash. Data acquisition and external perfusion was computer controlled by custom-developed software. All experiments were performed at room temperature (22-24° C.). Dose-response data from each oocyte were fitted to the Hill equation by non-linear regression using the equation: IGABA=Emax/(1+(EC50/c)nH)
# Emax is the maximum response, EC50 is the concentration producing 50% of the maximal response, nH is the Hill coefficient and c is the concentration of agonist. […]
IC50 [1] [nM],EP Result (GABAA receptors),Compound
< 1000,Neg,"O=c1c2c[nH]c3c(F)c(N4CCNCC4)c(F)cc3c-2nn1-c1ccccc1 [44a, 6,8-Difluoro-2-phenyl-7-piperazin-1-yl-2,5-dihydro-pyrazolo[4,3-c]quinolin-3-one]"
< 1000,Pos,"CN1CCN(c2c(F)cc3c4nn(-c5ccccc5)c(=O)c-4c[nH]c3c2F)CC1 [44b, 6,8-Difluoro-7-(4-methyl-piperazin-1-yl)-2-phenyl-2,5-dihydro-pyrazolo [4,3-c]quinolin-3-one]"
< 1000,Pos,"O=c1c2c[nH]c3c(F)c(N4CCOCC4)c(F)cc3c-2nn1-c1ccccc1 [44c, 6,8-Difluoro-7-(morpholin-4-yl)-2-phenyl-2,5-dihydro-pyrazolo[4,3-c]quinolin-3-one]"
< 1000,Pos,"COc1ccc(-n2nc3c4cc(F)c(N5CCN(C)CC5)c(F)c4[nH]cc-3c2=O)cc1 [44d, 6,8-Difluoro-2-(4-methoxyphenyl)-7-(4-methylpiperazin-1-yl)-2,5-dihydro-pyrazolo[4,3-c]quinolin-3-one]"

# The remaining lines, values behind:
Compound,IC50 [1] [nM],EP Result (GABAA receptors)
"CN1CCN(c2cc3[nH]cc4c(=O)n(-c5ccccn5)nc-4c3cc2F)CC1 [28f, 8-Fluoro-7-(4-methylpiperazin-1-yl)-2-pyridin-2-yl-2,5-dihydro-pyrazolo[4,3-c]quinolin-3-one]",< 1000,Pos
"CC1CN(c2cc3[nH]cc4c(=O)n(-c5ccccc5)nc-4c3cc2F)CC(C)O1 (stereo not shown) [28g, 7-(2,6-Dimethylmorpholin-4-yl)-8-fluoro-2-phenyl-2,5-dihydro-pyrazolo[4,3-c]quinolin-3-one]",< 1000,Pos
"O=c1c2c[nH]c3cc(N4CCOCC4)ccc3c-2nn1-c1ccccc1 [28h, 7-Morpholin-4-yl-2-phenyl-2,5-dihydro-pyrazolo[4,3-c]quinolin-3-one]",< 1000,Pos
"O=c1c2c[nH]c3cc(N4CCNCC4)c(F)cc3c-2nn1-c1ccsc1 [28p, 8-fluoro-7-(piperazin-1-yl)-2-(thiophen-3-yl)-2,5-dihydro-pyrazolo[4,3-c]quinolin-3-one]",< 1000,Neg
